Key:
[1] = target: T1, human β2 adrenergic receptor (β2AR) (Homo sapiens, UniProt P07550); assay: bimane fluorescence spectrum of mBBr-β2AR solubilized in amphipathic compounds; details: 0.1 wt % compound
T1 construct: Flag; made in house
Protocol: The structural stability of monobromobimane-labeled β2ARs (mBBr-β2ARs) solubilized in PSAs and PSEs was evaluated in the presence of a high-affinity agonist BI (BI-167107).
Specifically, monobromobimane (mBBr)-labeled β2ARs (mainly labeled on Cys265) was used to measure changes in a fluorescence spectrum induced by a local structural change near transmembrane helix 6 (TM6) (see Yao, X. et al., Nat. Chem. Biol. 2006, 2, 417-422.). 0.5 μL of BI (agonist)-bound mBBr-β2ARs dissolved at a concentration of […] in 0.1 wt % DDM was diluted with 500 μL of a buffer solution containing 0.1 wt % of each of the novel amphipathic compounds (PSA-C11, PSE-C11 and PSE-C13). After incubation of the protein samples for 30 minutes, the spectrum of mBBr was measured and compared with the spectrum of mBBr-labeled receptors dissolved in 0.1 wt % DDM. The 370 nm excitation wavelength was used for bimane fluorescence, and the emission spectra were measured at 430 to 510 nm using a Spex FluoroMax-3 spectrometer (Jobin Yvon Inc.) at 0.5 nm s^−1 in 1-nm units, and the photon counting mode was set to a 4-nm emission bandwidth pass. mBBr-labeled β2ARs dissolved in DDM were used as a positive control group. Data is representative of three independent experiments.
The structural change and structural stability of mBBr-β2ARs by PSAs/PSEs and DDM according the presence or absence of a full agonist (isoproterenol, ISO) or the combination of ISO and a G-protein were measured. It is well known that a full agonist (e.g., BI) and the binding of a Gs-protein are simultaneously required for full activation of receptors (see Rasmussen, S. G. F. et al., Nature 2011, 469, 175-180.).
Specifically, G protein coupling experiments were performed using the following method. 0.5 μL of non-ligand mBBr-labeled receptors at a concentration of 50 μM was diluted with 500 μL of a buffer solution containing a 0.1 wt % amphipathic compound at room temperature for 15 minutes. After dilution, a dilution containing the receptors at a final concentration of 50 nM was obtained. 2 μM isoproterenol (ISO) was added to the diluted solution, and the solution was incubated for an additional 15 minutes. 250 nM Gs-protein was additionally added to the solution, and then the protein samples included in the solution were incubated at room temperature for an additional 20 minutes. The 370 nm excitation wavelength was used for bimane fluorescence, and the emission spectra were measured at 430 to 510 nm using a Spex FluoroMax-3 spectrometer (Jobin Yvon Inc.) at 0.5 nm s^−1 in 1-nm units, and the photon counting mode was set to a 4-nm emission bandwidth pass. The same experiment was repeated using 0.1 wt % DDM, which was used as a positive control. Data is representative of three independent experiments.

[2] = hydrodynamic radius of micelles by dynamic light scattering (DLS); format: physicochemical; details: compound at 1.0 wt %
Outline: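 Micelle hydrodynamic radius (Rh) was measured by dynamic light scattering with each amphiphile at 1.0 wt %.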

[3] = target: T2, boron transporter (BOR1) BOR1-GFP fusion protein (Arabidopsis thaliana, UniProt Q8VYR7); assay: structural (thermal) stability of solubilized BOR1-GFP by fluorescence-based size exclusion chromatography (FSEC); details: for structural stability of solubilized BOR1-GFP after heating (RFU, FSEC): heated at 40° C. for 10 minutes, 1 wt % compound
T2 construct: made in house; host or cells: Saccharomyces cerevisiae FGY217
Protocol: The ability of PSAs or PSEs to stabilize the structure of boron transporter (BOR1) was measured in an aqueous solution. That is, the BOR1 protein solubilized in each amphipathic compound was denatured by heating, and then structural stability of BOR1 was measured using fluorescence-based size exclusion chromatography (FSEC).
Specifically, Arabidopsis thaliana-derived BOR1 was expressed in the form of a fusion protein having a GFP tag at the C-terminus in Saccharomyces cerevisiae FGY217 cells. The cells were grown in an URA-medium supplemented with 0.1% glucose. 2% galactose was added to the cell culture to induce protein expression and the cells were cultured at 20° C. for 18 hours (see Drew, D. et al., Nat. Protoc. 2008, 3, 784-798.). After culture, the cells were harvested and used to obtain the cell membranes (see Leung, J. et al., Protein Expr. Purif. 2010, 72, 139-146.). Membranes containing BOR1-GFP fusion proteins were diluted to a final total protein concentration of 2.8 mg/mL in PBS (pH7.4) supplemented with 1 wt % DDM, 1 wt % PSAs (PSA-C9, PSA-C10 or PSA-C11) or 1 wt % PSEs (PSE-C9, PSE-C11 or PSE-C13). The diluted samples were incubated at 4° C. for 1 hour with gentle shaking, and insoluble substances were removed by centrifugation at 14,000 g for 1 hour at 4° C. Supernatants containing the dissolved protein samples were incubated for 10 minutes at the specified temperature (35, 40, 45 or 50° C.), and strongly agglutinated proteins were removed by centrifugation at 14,000 g for 10 minutes at 4° C. 200 μL aliquots were taken from the supernatant and injected into a Superose 6 10/300 column equilibrated with 20 mM Tris-HCl (pH 7.5), 150 mM NaCl and 0.03% DDM. Each elution fraction was collected from a retention volume of 6.4 mL (i.e., after 6.4 mL of solution had passed), and added to a well of a clear bottom 96-well plate at a volume of 200 μL. GFP fluorescence generated in each fraction was measured using an excitation wavelength of 470 nm and an emission wavelength of 512 nm.

[4] = in the presence of agonist BI (BI-167107)
[5] = in the presence of full agonist isoproterenol (ISO)

T1 sequence (P07550 whole entry): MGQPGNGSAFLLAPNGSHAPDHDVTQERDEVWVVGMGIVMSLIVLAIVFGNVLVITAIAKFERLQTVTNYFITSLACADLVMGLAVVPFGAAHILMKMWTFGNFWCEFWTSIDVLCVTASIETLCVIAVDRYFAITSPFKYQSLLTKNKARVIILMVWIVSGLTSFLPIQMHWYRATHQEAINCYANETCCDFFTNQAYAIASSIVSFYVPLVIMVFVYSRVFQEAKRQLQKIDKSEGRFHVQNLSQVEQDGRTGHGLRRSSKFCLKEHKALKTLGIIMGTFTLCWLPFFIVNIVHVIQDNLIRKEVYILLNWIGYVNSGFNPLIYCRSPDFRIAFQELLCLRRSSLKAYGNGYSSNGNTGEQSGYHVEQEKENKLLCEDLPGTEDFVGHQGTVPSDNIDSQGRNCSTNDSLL

CCCCCCCCCCCC(CCCCCCCCCCC)CO[C@@H]1OC(CO[C@@H]2OC(CO)[C@@H](O)C(O)C2O)[C@@H](O[C@@H]2OC(CO)[C@@H](O)C(O)C2O)C(O[C@@H]2OC(CO)[C@@H](O)C(O)C2O)C1O[C@@H]1OC(CO)[C@@H](O)C(O)C1O (some centres unmarked) [PSA-C11]
bimane fluorescence spectrum of mBBr-β2AR [1, 4]: very similar to that obtained from the receptors dissolved in DDM
bimane fluorescence spectrum of mBBr-β2AR [1, 5]: spectra similar to the receptor solubilized by DDM
Rh (nm), hydrodynamic radius of micelles [2]: 3.28 ± 0.03 nm
structural stability of solubilized BOR1-GFP after heating (RFU, FSEC) [3]: remarkably improved as compared to DDM and PSA-C9

CCCCCCCCCCCOCC(COCCCCCCCCCCC)O[C@@H]1OC(CO[C@@H]2OC(CO)[C@@H](O)C(O)C2O)[C@@H](O[C@@H]2OC(CO)[C@@H](O)C(O)C2O)C(O[C@@H]2OC(CO)[C@@H](O)C(O)C2O)C1O[C@@H]1OC(CO)[C@@H](O)C(O)C1O (some centres unmarked) [PSE-C11]
bimane fluorescence spectrum of mBBr-β2AR [1, 4]: very similar to that obtained from the receptors dissolved in DDM
bimane fluorescence spectrum of mBBr-β2AR [1, 5]: spectra similar to the receptor solubilized by DDM
Rh (nm), hydrodynamic radius of micelles [2]: 3.46 ± 0.05 nm
state of solubilized BOR1-GFP after heating ([3]; 40 or 45° C. for 10 minutes): maintained monodispersibility
structural stability of solubilized BOR1-GFP after heating (RFU, FSEC) [3]: greatly improved compared to DDM

CCCCCCCCCCCCCOCC(COCCCCCCCCCCCCC)O[C@@H]1OC(CO[C@@H]2OC(CO)[C@@H](O)C(O)C2O)[C@@H](O[C@@H]2OC(CO)[C@@H](O)C(O)C2O)C(O[C@@H]2OC(CO)[C@@H](O)C(O)C2O)C1O[C@@H]1OC(CO)[C@@H](O)C(O)C1O (some centres unmarked) [PSE-C13]
bimane fluorescence spectrum of mBBr-β2AR [1, 4]: somewhat different bimane fluorescence spectrum compared to the receptors dissolved in DDM
Rh (nm), hydrodynamic radius of micelles [2]: 14.1 ± 0.24 nm
structural stability of solubilized BOR1-GFP after heating (RFU, FSEC) [3]: greatly improved compared to DDM

CCCCCCCCOCC(COCCCCCCCC)(COCCCCCCCC)CO[C@@H]1OC(CO[C@@H]2OC(CO)[C@@H](O)C(O)C2O)[C@@H](O[C@@H]2OC(CO)[C@@H](O)C(O)C2O)C(O[C@@H]2OC(CO)[C@@H](O)C(O)C2O)C1O[C@@H]1OC(CO)[C@@H](O)C(O)C1O (some centres unmarked) [TPS-E8]
Rh (nm), hydrodynamic radius of micelles [2]: 43.8 ± 16.3 nm

CCCCCCCCCCCCO[C@@H]1O[C@H](CO)[C@@H](O[C@H]2O[C@H](CO)[C@@H](O)[C@H](O)[C@H]2O)[C@H](O)[C@H]1O [DDM, n-dodecyl-β-D-maltopyranoside, reference compound]
Rh (nm), hydrodynamic radius of micelles [2]: 3.4 ± 0.03 nm
state of solubilized BOR1-GFP after heating ([3]; 35° C. for 10 minutes): retained the original state thereof
state of solubilized BOR1-GFP after heating ([3]; 40 or 45° C. for 10 minutes): complete denaturation/aggregation occurred
structural stability of solubilized BOR1-GFP after heating (RFU, FSEC) [3]: RFUs were relatively low due to denaturation after heating

Source: US20190169218A1, “AMPHIPATHIC COMPOUND HAVING NOVEL PENTA-SACCHARIDE HYDROPHILIC GROUP AND USE THEREOF” (Industry-University Cooperation Foundation Hanyang …, priority 2016, published 2019)
